Test results as given in US20250250227A1, “AMINO LIPID COMPOUND, PREPARATION METHOD THEREFOR, COMPOSITION THEREOF AND USE THEREOF” (SHENZHEN SHENXIN BIOTECHNOLOGY CO., LTD., priority 2022, published 2025).

What was measured:
Female BALB/c mice = experiment: Performance evaluation of in vivo delivery of Fluc mRNA lipid nanoparticle (IVIS, body and organs); conditions: Fluc mRNA LNP; for Liver (fluorescence expression intensity) / Spleen (fluorescence expression intensity): 75 μL IV; for Liver (fluorescence expression intensity) / Spleen (fluorescence expression intensity) / Total flux (fluorescence expression intensity) / (Spleen/Total Flux) * 100%: 6 hours after injection; for Liver (fluorescence expression intensity) / Spleen (fluorescence expression intensity) / Total flux (fluorescence expression intensity): IVIS; for Total flux (fluorescence expression intensity): 75 μL tail vein injection (IV); for (Spleen/Total Flux) * 100% / Multiple of spleen delivery/total delivery to amino lipid compound 118: IV; for Multiple of spleen delivery/total delivery to amino lipid compound 118: relative to amino lipid compound 118
Procedure: Animal preparation: Female BALB/c mice of 6-8 weeks old were selected and raised in an SPF grade breeding room. Animal testing was conducted in strict accordance with the guidelines of national health institutions and animal ethics requirements.
In vivo Delivery: prior to injection of the test LNP formulations, the LNP formulations were gently and repeatedly inverted to thoroughly mix the formulation samples. A corresponding amount of the formulation samples were aspirated with a 1 ml insulin syringe, and the LNP formulations were injected by tail vein injection (IV), with 3 mice in duplicate per formulation. Each mouse was injected with 75 μL of the luciferase mRNA (Fluc mRNA)-encapsulating lipid nanoparticle formulation prepared in Experimental Example 1.
6 hours after injection of LNP formulations, mice were injected with 200 μL D-Luciferin luciferase developing substrate (Catalog No. 122799; Manufacturer: Perkin Elmer). After the substrate was injected, the mice were anesthetized with isoflurane inhalation, and the injection time of luciferase developing substrate was recorded.
The encapsulation efficiency of the lipid nanoparticle encapsulating luciferase mRNA (Fluc mRNA) with a representative amino lipid compound and the fluorescence expression intensity induced by the same are shown in Table 4, with the amino lipid compound 118 as a control.
The multiple of spleen delivery/total delivery of fluorescence expression intensity induced by lipid nanoparticle encapsulating luciferase mRNA (Fluc mRNA) with a representative amino lipid compound to amino lipid compound 118 is shown in Table 5.

[1] = Preparation and characterisation of mRNA-encapsulating lipid nanoparticle (encapsulation efficiency, particle size); assay type: physicochemical; conditions: LNP encapsulating Fluc mRNA; Lipid:DSPC:CHO-HP:M-DMG-2000 48:10:40.5:1.5
Procedure: A specified amount of Fluc mRNA stock solution, 0.2 M sodium acetate buffer, and DEPC water were added to a container, and mixed well to obtain a water phase;
The amino lipid compound of the present disclosure, a helper lipid, a structural lipid, and a PEG-lipid were separately dissolved in absolute ethanol to prepare respective solutions at concentrations of 20 mg/mL, 10 mg/mL, 20 mg/mL, and 25 mg/mL, respectively. The above four solutions were pipetted at a molar ratio of Lipid:DSPC:CHO—HP:M-DMG-2000 of 48:10:40.5:1.5, and mixed well to prepare an alcohol phase. • (2) Encapsulation: The water phase and the alcohol phase were injected into a microfluidic chip at a flow rate of water phase: alcohol phase=12 mL/min: 4 mL/min by using a microfluidic preparation instrument (MPE-L2), and encapsulation was carried out at a flow rate of water phase: alcohol phase=9 mL/min: 3 mL/min to obtain mRNA-encapsulating lipid nanoparticle (mRNA-LNP). • (3) Dialysis: The product of step (2) was loaded in a dialysis bag and placed in a Tris Buffer-8% sucrose solution for replacement to remove ingredients such as residual ethanol, unassembled lipids. Dialysis was conducted for 2 h with magnetic stirring at room temperature and under protection from light (dialysate was replaced every 1 hour). • (4) The product of step (3) was sterilized by passing through a […] microporous membrane, and then packaged.
Lipid nanoparticle formulations encapsulating Fluc mRNA were prepared, with a concentration of Fluc mRNA of 0.2 g/L, a mass ratio of Fluc mRNA to Lipid of 1:10, a particle size of 80-130 nm, and a encapsulation efficiency of 85% or higher.
The encapsulation efficiency of the lipid nanoparticle encapsulating luciferase mRNA (Fluc mRNA) with a representative amino lipid compound and the fluorescence expression intensity induced by the same are shown in Table 4, with the amino lipid compound 118 as a control. […]

SMILES | Liver (fluorescence expression intensity) (Female BALB/c mice) | Spleen (fluorescence expression intensity) (Female BALB/c mice) | Total flux (fluorescence expression intensity) (Female BALB/c mice) | (Spleen/Total Flux) * 100% (Female BALB/c mice) | Multiple of spleen delivery/total delivery to amino lipid compound 118 (Female BALB/c mice) | Encapsulation efficiency [1]
CCCCCCC(CCCCCC)OC(=O)CCCCCCCCC(CCCCCCCCC(=O)OC(CCCCCC)CCCCCC)OC(=O)N(CCCC(=O)OC(C)CCC)CCCN(C)C (stereo not drawn) [Compound 309] | 4.90E+07 | 3.44E+06 | 3.69E+08 | 0.93% | 2.74 | 91.62%
CCCCCCC(CCCCCC)OC(=O)CCCCCCCCC(CCCCCCCCC(=O)OC(CCCCCC)CCCCCC)OC(=O)N(CCCN(C)C)CCC(=O)OC(C)C [Compound 316] | 1.26E+08 | 2.03E+07 | 8.16E+08 | 2.49% | 7.32 | 90.67%
CCCCCCC(CCCCCC)OC(=O)CCCCCCCCC(CCCCCCCCC(=O)OC(CCCCCC)CCCCCC)OC(=O)N(CCCN(C)C)CCC(=O)OC(C)CCCC (stereo not drawn) [Compound 320] | 1.13E+08 | 4.97E+06 | 7.04E+08 | 0.71% | 2.08 | 92.13%
CCCCCCC(CCCCCC)OC(=O)CCCCCCCCC(CCCCCCCCC(=O)OC(CCCCCC)CCCCCC)OC(=O)N(CCCN(C)C)CCC(=O)OC(CC)CCC (stereo not drawn) [Compound 321] | 1.27E+08 | 1.47E+07 | 7.21E+08 | 2.04% | 6.00 | 93.85%
CCCCCCC(CCCCCC)OC(=O)CCCCCCCCC(CCCCCCCCC(=O)OC(CCCCCC)CCCCCC)OC(=O)N(CCCN(C)C)CCC(=O)OC(C)CCCCC (stereo not drawn) [Compound 322] | 9.73E+07 | 6.56E+06 | 7.90E+08 | 0.83% | 2.44 | 90.32%
CCCCCCC(C)OC(=O)CN(CCCN(C)C)C(=O)OC(CCCCCCCCC(=O)OC(CCCCCC)CCCCCC)CCCCCCCCC(=O)OC(CCCCCC)CCCCCC (stereo not drawn) [Compound 337] | 6.49E+07 | 3.30E+06 | 3.58E+08 | 0.92% | 2.71 | 92.38%
CCCCCCC(CCCCCC)OC(=O)CCCCCCCCC(CCCCCCCCC(=O)OC(CCCCCC)CCCCCC)OC(=O)N(CCCN(C)C)CC(=O)OC(CC)CCCCC (stereo not drawn) [Compound 338] | 1.07E+08 | 3.20E+06 | 6.32E+08 | 0.51% | 1.49 | 91.13%
CCCCCCC(CCCCCC)OC(=O)CCCCCCCCC(CCCCCCCCC(=O)OC(CCCCCC)CCCCCC)OC(=O)N(CCCCCC(=O)OCC)CCCN1CCCC1 [Compound 365] | 9.03E+07 | 4.45E+06 | 6.73E+08 | 0.66% | 1.94 | 92.45%
CCCCCCC(CCCCCC)OC(=O)CCCCCCCCC(CCCCCCCCC(=O)OC(CCCCCC)CCCCCC)OC(=O)N(CCCCCC(=O)OCC)CCCCN1CCCC1 [Compound 366] | 8.92E+07 | 4.11E+06 | 5.82E+08 | 0.71% | 2.08 | 93.63%
CCCCCCC(CCCCCC)OC(=O)CCCCCCCCC(CCCCCCCCC(=O)OC(CCCCCC)CCCCCC)OC(=O)N(CCCN1CCCC1)CC(=O)OCC [Compound 367] | 1.06E+07 | 4.33E+05 | 9.45E+07 | 0.46% | 1.35 | 91.21%
CCCCCCC(CCCCCC)OC(=O)CCCCCCCCC(CCCCCCCCC(=O)OC(CCCCCC)CCCCCC)OC(=O)N(CCCCN1CCCC1)CC(=O)OCC [Compound 368] | 6.14E+07 | 1.25E+07 | 3.97E+08 | 3.15% | 9.26 | 87.51%
CCCCCCC(CCCC)COC(=O)CCCCCCCCC(CCCCCCCCC(=O)OCC(CCCC)CCCCCC)OC(=O)N(CCCC(=O)OCCCCC)CCCN(C)C (stereo not drawn) [Compound 371] | 2.92E+08 | 2.36E+07 | 1.12E+09 | 2.11% | 6.20 | 93.17%
CCCCCCOC(=O)CCN(CCCN(C)C)C(=O)OC(CCCCCCCCC(=O)OCC(CCCC)CCCCCC)CCCCCCCCC(=O)OCC(CCCC)CCCCCC (stereo not drawn) [Compound 372] | 1.67E+08 | 8.59E+06 | 5.43E+08 | 1.58% | 4.65 | 92.17%
CCCCCCCOC(=O)CCN(CCCN(C)C)C(=O)OC(CCCCCCCCC(=O)OCC(CCCC)CCCCCC)CCCCCCCCC(=O)OCC(CCCC)CCCCCC (stereo not drawn) [Compound 373] | 9.15E+07 | 6.93E+06 | 4.77E+08 | 1.45% | 4.27 | 92.01%
CCCCCCCOC(=O)CN(CCCN(C)C)C(=O)OC(CCCCCCCCC(=O)OCC(CCCC)CCCCCC)CCCCCCCCC(=O)OCC(CCCC)CCCCCC (stereo not drawn) [Compound 375] | 1.55E+08 | 7.63E+06 | 4.06E+08 | 1.88% | 5.53 | 94.18%
